The text below walks through data of patent US4853398A, “Leukotriene antagonists and use thereas” (Eli Lilly and Company, priority 1987, dated 1989).

In this test the test system is LTD4 evoked ileal contractions. Nature of the test: LTD4 antagonism: inhibition of LTD4 evoked ileal contractions (isolated guinea pig ileum). Further details: species or system guinea pig (male, Hartley). The conditions noted are these: for -log IC50: 50% inhibition of LTD4 responses, interpolated by linear regression from 2-4 concentrations; for Percent inhibition of LTD4 evoked ileal contractions: isolated ileum, five minute exposure. On the procedure: Male, Hartley guinea pigs weighing 200-450 grams were killed by decapitation. A section of terminal ileum was removed, the lumen cleaned, and the tissue divided into 2.5 cm. segments. The ilea were mounted in 10 ml. tissue baths containing Krebs-bicarbonate solution of the following composition in mmoles/liter: KCl, 4.6; CaCl2.2H2 O, 1.2; KH2 PO4, 1.2; MgSO4.7H2 O, 1.2; NaCl, 118.2; NaHCO3, 24.8; and dextrose, 10.0. The bath fluid was maintained at 37° C. and aerated with 95 percent oxygen and 5 percent CO2. In addition, the buffer contained 1×10^-6 M atropine to reduce ileal spontaneous activity. Isometric measurements were made with a Grass FTO3C force-displacement transducer and recorded on a Grass polygraph as change in grams of force. A passive force of 0.5 g. was applied to the tissues. After an appropriate equilibration period, single submaximal control responses to pure LTD4 were obtained. Following a five minute exposure of the ileum to an experimental drug, the control concentration of LTD4 was added to the tissue bath. The response of the ileum to LTD4 in the presence of the drug was compared to the response in the absence of the drug. Various degrees of LTD4 antagonism were obtained using 2-4 different concentrations of an experimental compound on a single ileum.

Setting [1] is: compound concentration 3 × 10^-7 M.
Where [2] appears, read: compound concentration 3 × 10^-8 M.
The mark [3] stands for this setting: compound concentration 3 × 10^-9 M.
The mark [4] stands for this setting: compound concentration 1 × 10^-8 M.
The mark [5] stands for this setting: compound concentration 1 × 10^-7 M.

In the case of `CCCc1c(COc2ccc(C(=O)c3cccc(-c4nnn[nH]4)c3)cc2)ccc(C(C)=O)c1O` [Example 1, 1-[2-Hydroxy-3-propyl-4-({4-[3-(1H-tetrazol-5-yl)benzoyl]phenoxy}methyl)phenyl]ethanone], the “-log IC50” value was determined as 8.58. In addition, the “Percent inhibition of LTD4 evoked ileal contractions” value (from here on “Percent inhibition”) (compound concentration 1 × 10^-9) was found to be 21%. The “Percent inhibition” value under setting [1] was 98%. Besides, under setting [2], the “Percent inhibition” value is on record as 80%. In addition, under setting [3], the “Percent inhibition” value is 53%.

Consider `CCCc1c(COc2ccc(C(=O)c3ccc(-c4nnn[nH]4)cc3)cc2)ccc(C(C)=O)c1O` [Example 2, 1-[2-Hydroxy-3-propyl-4-({4-[4-(1H-tetrazol-5-yl)-benzoyl]phenoxy}methyl)phenyl]ethanone], for which the “-log IC50” value was determined as 8.29. Under setting [4], the “Percent inhibition” value was 72%. Besides, the “Percent inhibition” value under setting [3] was determined as 32%.

Turning to `CCCc1c(COc2ccc(C(O)c3cccc(-c4nnn[nH]4)c3)cc2)ccc(C(C)=O)c1O` (stereo not shown) [Example 3, 1-{2-Hydroxy-4-[(4-{hydroxy[3-(1H-tetrazol-5-yl)-phenyl]methyl}phenoxy)methyl]-3-propylphenyl}ethanone], the “-log IC50” value amounted to 7.89. Also, the “Percent inhibition” value under setting [5] is given as 81%. Under setting [4], the “Percent inhibition” value was 40%. Also, the “Percent inhibition” value under setting [2] is on record as 75%.

For the compound `CCCc1c(COc2ccc(Oc3ccc(-c4nnn[nH]4)cc3)cc2)ccc(C(C)=O)c1O` [Example 4, 1-[2-Hydroxy-3-propyl-4-({4-[4-(1H-tetrazol-5-yl)-phenoxy]phenoxy}methyl)phenyl]ethanone], the “-log IC50” value turned out to be 7.08. Further, the “Percent inhibition” value under setting [5] came out at 53%. Besides, the “Percent inhibition” value under setting [1] worked out at 80%. In addition, under setting [2], the “Percent inhibition” value amounted to 25%.
